# Reference: patent US6794491B1, “Polypeptides, their production and use” (Takeda Chemical Industries, Ltd., priority 1995, dated 2004)
# Entries after “also recorded” stand apart in the source; their conditions may differ. Where no end group is shown, it is not given here.
# Experiments:
# [1] = reserpine-induced hypothermia in mice; format: in vivo, ICR male mice; conditions: lateral ventricle
# Description: The mature ICR male mice (weight at operation: about 35 g) were anesthetized by administration of pentobarbital (50 mg/kg, i.p.), and then fixed on stereotaxic apparatus. The skull of a said mouse was exposed, then a hole was made by dental drill for guide-cannulization into the left lateral ventricle. The tip of a stainless-steel guide-cannula (24 G, length: 5 mm) for drug injection to lateral ventricle, was inserted to the position of AP: +0.6 mm (from bregma), L: left 1 mm and H: −1 mm (from dura matter). The guide-cannula was fixed onto the skull with adhesive. The cannula-implanted mice were housed as described above and were used for measurements of body temperature at least 3 days after the operation. Reserpine (Apoplon; Daiichi Pharmaceutical) was administered to mice at a dose of 3 mg/kg, s.c., and after 15 hours, each mouse was placed in a cage for the measurement. Then a stainless-steel micro-injection cannula (30 G, length: 6 mm) was inserted into the guide-cannula. The micro-injection cannula was connected to a microsyringe pump with Teflon tube, and injection of PBS or a peptide dissolved in PBS lasted for 2 minutes at a speed of 1 μl/min. The micro-injection cannula was withdrawn after over a period of 2 minutes from end of injection, than the temperature in rectum was measured.
# The results are expressed as a mean±S.E.M. Student's t test was used to determine the significance of differences between values from the mice treated with a peptide and the PBS-injected controls. For the purpose of this analysis, p<0.05 was assumed to be the minimal level of significance.
# [2] = target: T1, full-length receptor protein expressed CHO cells (CHO-19P2); human pituitary receptor protein (hGR3) (Homo sapiens, UniProt P49683); assay: release of arachidonic acid metabolites from CHO-19P2 cells; format: cell-based; conditions: amount of [3H]arachidonic acid metabolites, 10^−12 M-10^−6 M in 0.05% BSA-HBSS
# T1 construct: to construct a full-length receptor protein expression plasmid pAKKO-19P2; expressed in transfected cells; host or cells: CHO dhfr- cells transfected with pAKKO-19P2 (CHO-19P2; clone CHO-19P2-9)
# T1 sequence (P49683 1-370): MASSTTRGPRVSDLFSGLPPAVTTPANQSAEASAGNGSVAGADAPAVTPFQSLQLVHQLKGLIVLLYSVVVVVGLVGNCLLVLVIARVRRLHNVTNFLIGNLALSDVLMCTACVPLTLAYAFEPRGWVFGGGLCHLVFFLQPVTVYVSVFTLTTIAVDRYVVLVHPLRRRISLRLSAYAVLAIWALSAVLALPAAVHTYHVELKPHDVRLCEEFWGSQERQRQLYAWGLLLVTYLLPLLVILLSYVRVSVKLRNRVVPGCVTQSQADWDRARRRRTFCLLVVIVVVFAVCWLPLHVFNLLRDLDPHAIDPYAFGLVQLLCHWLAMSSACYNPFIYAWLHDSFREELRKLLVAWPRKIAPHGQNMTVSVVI
# Description: The full-length receptor protein-expressed CHO cells and mock CHO cells were seeded in a 24-well plate, 0.5×10^5 cells/well, and cultured for 24 hours. Then, [^3H] arachidonic acid was added at a final concentration of 0.25 μCi/well. Sixteen (16) hours after addition of [^3H] arachidonic acid, the cells were rinsed with 0.05% BSA-HBSS and the above-mentioned crude peptide fraction was added, 400 μl/well. The mixture was incubated at 37° C. for 30 minutes and a 300 μl portion of the reaction mixture (400 μl) was added to 4 ml of a scintillator and the amount of [^3H] arachidonic acid metabolite released into the reaction mixture was determined with a scintillation counter.
# The activity of the peptide (19P2-L31) synthesized in Example 21 to specifically release arachidonic acid metabolites from CHO-19P2 cells was assayed in the same manner as Example 11. The synthetic peptide was dissolved in degassed dH20 at a concentration of 10^−3M and diluted with 0.05% BSA-HBSS and the activity to promote release of arachidonic acid metabolites from CHO-19P2 cells at each concentration was assayed using the amount of [^3H]arachidonic acid metabolites as the indicator.
# The activity of the synthetic equivalent (19P2-L20) of natural peptide P-2 as synthesized in Example 23 to specifically promote release of arachidonic acid metabolites from CHO-19P2 cells was determined as in Example 11. Thus, the synthetic peptide was dissolved in degassed dH2O at a final concentration of 10^−3M and this solution was serially diluted with 0.05% BAS-HBSS. The activity to specifically promote release of arachidonic acid metabolites from CHO-19P2 cells at each concentration was assayed using the amount of [^3H]arachidonic acid metabolites as the indicator.
substance,measurement,setting,value
"Ser-Arg-Ala-His-Gln-His-Ser-Met-Glu-Ile-Arg-Thr-Pro-Asp-Ile-Asn-Pro-Ala-Trp-Tyr-Ala-Gly-Arg-Gly-Ile-Arg-Pro-Val-Gly-Arg-Phe-NH2 (SRAHQHSMEIRTPDINPAWYAGRGIRPVGRF-NH2) [19P2-L31, synthetic ligand polypeptide]",temperature variation versus PBS-injected control,"[1]; 1 nmol, reserpine-treated mice",no statistically significant difference
same,body temperature lowered by reserpine,"[1]; 10 nmol, mice, 15 hours after reserpine 3 mg/kg s.c., versus PBS",increased significantly
same,time of maximum increase of body temperature after administration,"[1]; 10 nmol, reserpine-treated mice",45 min
same,arachidonic acid metabolite-releasing activity,[2],concentration-dependent arachidonic acid metabolite-releasing activity was detected over the range of 10^−12M-10^−6M; also recorded: found in a concentration-dependent manner
